Assay results: US20190359645A1, “2'3'-CYCLIC DINUCLEOTIDES COMPRISING CARBOCYCLIC NUCLEOTIDE” (Institute of Organic Chemistry and Biochemistry ASCR, V.V.I., priority 2018, published 2019)
pEC50: −log10 of the molar value.

Molecular target: WT STING (Homo sapiens, UniProt Q86WV6, H232R)
Assay: Digitonin assay using 293T wtSTING-FL reporter cells
Type: cell-based
Set-up: host or cells: 293T (ATCC CRL-3216), stably transfected; also carries the 4xISRE firefly luciferase reporter
Conditions: 293T wtSTING-FL cells, digitonin buffer 30 min, then 5 h, ISRE firefly luciferase reporter; read-out: Digitonin assay EC50 WT STING
Text: Two complementary oligonucleotides of the sequence […] […] […] […] (SEQ ID NO: 1) and […] […] (SEQ ID NO:2) containing four interferon-sensitive response elements (ISRE) were synthesized by Sigma Aldrich (Czech Republic, Prague). The oligonucleotides were mixed in equal molar amounts, hybridized, and cleaved by restriction endonucleases HindIII (cat. #. R^0104S, NEB, Ipswich, USA) and BglII (cat. # R^0144S, NEB, Ipswich, USA). Ultimately, they were ligated into plasmid pGL4.27 (cat. # E6651, Promega, Madison, USA) linearized with the same enzymes. As a result, the sequence with four ISRE sites was placed upstream of the minimum promoter of firefly luciferase reporter gene.
293T cells (cat. # CRL-3216, ATCC, Manassas, USA) were seeded a day before transfection at density 125,000 cells per cm^2 onto poly-D-lysine (cat. # P6407, Sigma Aldrich, Czech Republic) coated six well plates in antibiotic free DMEM with high glucose (cat. # D5796, Sigma Aldrich, Czech Republic) supplemented with 10% heat inactivated FBS (cat. # S1520, Biowest, Riverside, USA). On the day of transfection, 2.5 μg of the plasmid pUNO1-hSTING-WT (cat. # punol-hstingwt, InvivoGen, San Diego, USA,) encoding human wild type STING (WT STING) was diluted in 125 μL OptiMEM medium (cat. #31985062, ThermoFisher, Waltham, USA) and mixed with 125 μL of the same medium containing 12.5 μL of Lipofectamine 2000 (cat. #11668019, ThermoFisher, Waltham, USA). After 5 minutes incubation at room temperature (RT), 250 μL of the mixture was added dropwise to the cells in one well. Cells were incubated 36 hours at 37° C. with 5% CO2, and then detached with 0.05% Trypsin and 0.22 g/L EDTA (both cat. # L0941, Biowest, Riverside, USA).
Transfected cells were seeded onto poly-D-lysine coated six well plates at density 50,000 cells per 1 cm^2 in DMEM medium with high glucose containing 10% heat inactivated FBS, […] blasticidin (cat. # ant-bl-05, InvivoGen, San Diego, USA), 0.06 mg/ml Penicillin G and 0.1 mg/ml Streptomycin Sulfate (both cat. #. L0018, Biowest, Riverside, USA). The medium was replenished every 3-4 days until visible colonies of cells resistant to blasticidin were formed.
Blasticidin resistant cells stably expressing WT STING were further transfected with […] plasmid following the same procedure as described above. The transfected cells were selected for the resistance to 300 μg/mL hygromycin (cat. #. 10687010, ThermoFisher, Waltham, USA) in DMEM with high glucose containing 10% heat inactivated FBS, […] blasticidin, 0.06 mg/ml Penicillin G and 0.1 mg/ml Streptomycin Sulfate. Homogeneous culture of stably double transfected cells was prepared by limiting dilution of cells in 96 well plates and wells with cells were selected that originated from a single cell. These cells were expanded, and expression of WT STING was confirmed by western blot using monoclonal mouse anti STING antibodies (cat. #. MAB7169, 1:1000 dilution; […] cat. #. HAF007, 1:2000 dilution, both from R&D Systems, Minneapolis, USA), and by induction of firefly luciferase expression in the presence of 50 μM STING agonist 2′3′ cGAMP (cat. # tlrl-nacga23, InvivoGen, San Diego, USA). Genomic DNA from the transfected cells was amplified with primers pUNO1_Seq_F ([…]) (SEQ ID NO:3) and pUNO1_Seq_R ([…]) (SEQ ID NO:4) that were complementary to pUNO1 plasmid and the presence of WT STING gene in the transfected cells was confirmed by DNA sequencing.
293T wtSTING-FL cells were seeded at density of 250,000 cells per cm^2 onto 96 well poly-D-lysine coated plates in 100 μl DMEM with high glucose supplemented with 10% heat inactivated FBS. […]

WT STING, sequence (Q86WV6 whole entry H232R): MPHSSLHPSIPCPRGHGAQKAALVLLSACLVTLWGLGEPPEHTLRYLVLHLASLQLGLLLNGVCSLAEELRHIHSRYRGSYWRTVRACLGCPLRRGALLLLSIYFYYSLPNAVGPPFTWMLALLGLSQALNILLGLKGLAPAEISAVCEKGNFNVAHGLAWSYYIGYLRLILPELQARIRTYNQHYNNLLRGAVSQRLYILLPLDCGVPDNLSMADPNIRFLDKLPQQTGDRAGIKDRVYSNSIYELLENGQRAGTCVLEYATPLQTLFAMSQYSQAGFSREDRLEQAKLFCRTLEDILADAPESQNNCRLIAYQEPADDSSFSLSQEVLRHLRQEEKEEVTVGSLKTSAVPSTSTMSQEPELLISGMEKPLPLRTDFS

In order of rising pEC50:
1. Nc1ncnc2c1ncn2[C@@H]1O[C@@H]2COP(=O)(O)OC3C(O)[C@@H](COP(=O)(O)OC2C1O)C[C@H]3n1cnc2c(=O)[nH]cnc21 (stereo partly drawn) [Compound 121, (6R,8R,15R,17R)-8-(6-amino-9H-purin-9-yl)-3,9,12,18-tetrahydroxy-17-(6-oxo-6,9-dihydro-1H-purin-9-yl)-2,4,7,11,13-pentaoxa-3λ^5,12λ^5-diphosphatricyclo[13.2.1.0^6,10]octadecane-3,12-dione]  6.30
2. Cc1cn([C@@H]2O[C@@H]3COP(=O)(O)OC4C(O)[C@@H](COP(=O)(O)OC3C2O)C[C@H]4n2cnc3c(=O)[nH]cnc32)c2ncnc(N)c12 (stereo partly drawn) [Compound 123, (6R,8R,15R,17R)-8-{4-amino-5-methyl-7H-pyrrolo[2,3-d]pyrimidin-7-yl}-3,9,12,18-tetrahydroxy-17-(6-oxo-6,9-dihydro-1H-purin-9-yl)-2,4,7,11,13-pentaoxa-3λ^5,12λ^5-diphosphatricyclo[13.2.1.0^6,10]octadecane-3,12-dione]  6.52
3. Nc1ncc2ncn([C@@H]3O[C@@H]4COP(=O)(O)OC5C(O)[C@@H](COP(=O)(O)OC4C3O)C[C@H]5n3cnc4c(=O)[nH]c(N)nc43)c2n1 (stereo partly drawn) [Compound 106, (6R,8R,15R,17R)-17-(2-amino-6-oxo-6,9-dihydro-1H-purin-9-yl)-8-(2-amino-9H-purin-9-yl)-3,9,12,18-tetrahydroxy-2,4,7,11,13-pentaoxa-3λ^5,12λ^5-diphosphatricyclo[13.2.1.0^6,10]octadecane-3,12-dione]  6.70
4. Nc1ncnc2c1ncn2[C@@H]1O[C@@H]2COP(=O)(O)O[C@@H]3[C@@H](F)[C@@H](COP(=O)(O)O[C@H]2[C@H]1O)C[C@H]3n1cnc2c(=O)[nH]cnc21 [Compound 126, (1S,6R,8R,9R,10S,15R,17R,18S)-8-(6-amino-9H-purin-9-yl)-18-fluoro-3,9,12-trihydroxy-17-(6-oxo-6,9-dihydro-1H-purin-9-yl)-2,4,7,11,13-pentaoxa-3λ^5,12λ^5-diphosphatricyclo[13.2.1.0^6,10]octadecane-3,12-dione]  7.30
5. Nc1nc2c(ncn2[C@@H]2C[C@@H]3COP(=O)(O)OC4C(F)[C@H](n5cnc6c(N)nc(F)nc65)O[C@@H]4COP(=O)(O)OC2C3O)c(=O)[nH]1 (stereo partly drawn) [Compound 111, (6R,8R,15R,17R)-8-(6-amino-2-fluoro-9H-purin-9-yl)-17-(2-amino-6-oxo-6,9-dihydro-1H-purin-9-yl)-9-fluoro-3,12,18-trihydroxy-2,4,7,11,13-pentaoxa-3λ^5,12λ^5-diphosphatricyclo[13.2.1.0^6,10]octadecane-3,12-dione]  7.52
6. Nc1ncnc2c1ncn2[C@@H]1O[C@@H]2COP(=O)(O)OC3C(O)[C@@H](COP(=O)(O)OC2C1O)C[C@H]3n1cnc2c(=O)[nH]cnc21 (stereo partly drawn) [Compound 120, (6R,8R,15R,17R)-8-(6-amino-9H-purin-9-yl)-3,9,12,18-tetrahydroxy-17-(6-oxo-6,9-dihydro-1H-purin-9-yl)-2,4,7,11,13-pentaoxa-3λ^5,12λ^5-diphosphatricyclo[13.2.1.0^6,10]octadecane-3,12-dione]  7.52
7. Nc1ncnc2c1ncn2[C@@H]1O[C@@H]2COP(=O)(O)O[C@@H]3[C@H](F)[C@@H](COP(=O)(O)O[C@H]2[C@H]1F)C[C@H]3n1cnc2c(=O)[nH]cnc21 [Compound 127]  7.52

Same assay, conditions: Digitonin assay EC50 WT STING, 293T wtSTING-FL cells, digitonin buffer 30 min, then 5 h, ISRE firefly luciferase reporter

In the case of Nc1nc2c(ncn2[C@@H]2C[C@@H]3COP(=O)(O)OC4C(O)[C@H](n5cnc6c(N)ncnc65)O[C@@H]4COP(O)(=S)OC2C3O)c(=O)[nH]1 (stereo partly drawn) [Compound 101, 2-amino-9-[(6R,8R,15R,17R)-8-(6-amino-9H-purin-9-yl)-3,9,12,18-tetrahydroxy-12-oxo-3-sulfanylidene-2,4,7,11,13-pentaoxa-3λ^5,12λ^5-diphosphatricyclo[13.2.1.0^6,10]octadecan-17-yl]-6,9-dihydro-1H-purin-6-one], the pEC50 was 8.00.
